From patent US5561112A, “Pseudopeptide isosteres of gly-asp and their use as antithrombic agents” (Sandoz Ltd., priority 1992, dated 1996)
Read-outs that look alike come from different tables or passages of the source.

What was measured:
GP IIb/IIIa = target: T1, GP IIb/IIIa (Homo sapiens, UniProt P05106+P08514); assay: Inhibition of binding of fibrinogen to isolated and immobilized GP IIb/IIIa (FB); settings: biotin-labelled fibrinogen; GP IIb/IIIa isolated from human blood platelet membranes, bonded to microtitre plates; read-out: FB: IC50 (inhibition of the fibrinogen GPIIb/IIIa binding)
T1 construct: GP IIb/IIIa is isolated from membranes of human blood platelets by triton X-100 extraction; from tissue; host or cells: human blood platelets (membranes)
T1 sequence (P08514 32-887 limits assumed): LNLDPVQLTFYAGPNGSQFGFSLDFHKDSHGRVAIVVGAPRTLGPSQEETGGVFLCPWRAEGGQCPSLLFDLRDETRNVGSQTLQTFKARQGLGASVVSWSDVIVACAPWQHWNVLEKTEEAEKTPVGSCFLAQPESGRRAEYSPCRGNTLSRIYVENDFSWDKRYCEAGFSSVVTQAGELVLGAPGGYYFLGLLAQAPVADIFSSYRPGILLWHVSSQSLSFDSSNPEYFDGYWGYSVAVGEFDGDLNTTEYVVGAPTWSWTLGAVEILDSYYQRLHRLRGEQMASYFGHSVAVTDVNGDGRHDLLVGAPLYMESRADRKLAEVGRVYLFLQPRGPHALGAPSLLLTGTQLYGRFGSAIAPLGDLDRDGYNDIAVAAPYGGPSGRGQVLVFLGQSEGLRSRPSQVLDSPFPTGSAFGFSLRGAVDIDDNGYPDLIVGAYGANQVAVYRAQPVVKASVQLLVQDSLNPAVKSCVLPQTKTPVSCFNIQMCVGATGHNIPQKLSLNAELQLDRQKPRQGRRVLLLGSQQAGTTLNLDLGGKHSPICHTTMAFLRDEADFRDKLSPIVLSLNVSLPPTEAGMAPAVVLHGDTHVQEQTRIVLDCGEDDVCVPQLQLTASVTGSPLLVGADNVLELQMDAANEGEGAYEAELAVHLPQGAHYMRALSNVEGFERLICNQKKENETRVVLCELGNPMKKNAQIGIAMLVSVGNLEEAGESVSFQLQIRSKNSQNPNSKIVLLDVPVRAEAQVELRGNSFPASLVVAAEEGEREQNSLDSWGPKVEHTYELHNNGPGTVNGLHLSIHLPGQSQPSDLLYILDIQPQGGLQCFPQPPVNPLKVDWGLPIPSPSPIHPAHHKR
T1 sequence (P05106 27-788): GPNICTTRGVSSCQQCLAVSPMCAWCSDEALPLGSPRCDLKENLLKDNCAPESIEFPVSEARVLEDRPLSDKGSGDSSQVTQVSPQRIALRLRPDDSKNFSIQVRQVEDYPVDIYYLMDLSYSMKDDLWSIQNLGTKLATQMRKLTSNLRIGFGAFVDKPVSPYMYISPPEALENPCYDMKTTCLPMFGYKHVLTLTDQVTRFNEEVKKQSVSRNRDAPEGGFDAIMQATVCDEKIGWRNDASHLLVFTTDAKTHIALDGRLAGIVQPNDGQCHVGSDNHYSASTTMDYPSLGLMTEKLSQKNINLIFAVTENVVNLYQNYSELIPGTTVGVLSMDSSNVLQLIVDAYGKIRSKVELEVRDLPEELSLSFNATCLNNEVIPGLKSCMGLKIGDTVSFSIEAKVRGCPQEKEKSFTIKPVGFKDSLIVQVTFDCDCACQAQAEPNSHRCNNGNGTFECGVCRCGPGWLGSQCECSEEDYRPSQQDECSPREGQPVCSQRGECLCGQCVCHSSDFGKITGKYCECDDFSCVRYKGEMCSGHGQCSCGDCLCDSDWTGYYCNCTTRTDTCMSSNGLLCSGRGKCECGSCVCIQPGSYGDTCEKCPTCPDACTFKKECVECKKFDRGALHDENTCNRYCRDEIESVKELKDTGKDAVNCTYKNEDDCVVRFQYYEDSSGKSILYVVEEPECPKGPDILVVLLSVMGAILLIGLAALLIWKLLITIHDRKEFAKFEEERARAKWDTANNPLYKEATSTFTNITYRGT
Excerpt: a) Inhibition of binding of fibrinogen to isolated and immobilized GP IIb/IIIa: GP IIb/IIIa is isolated from membranes of human blood platelets by triton X-100 extraction and purified by chromatography on ion exchangers and by gel filtration. The receptor protein thus obtained is bonded to microtitre plates. The inhibition of the binding of biotin-labelled fibrinogen to the receptor in the presence of inhibitor is quantified.
The compounds of formula I effect an inhibition of the fibrinogen GP IIb/IIIa binding in a range of IC50 (concentration of compounds of formula I which reduce the binding of fibrinogen to the receptor by 50%) of between 0.5 and 20 nM.
(§1) The compounds of Examples 1 to 8 are tested to determine their IC50 values in the inhibition of the fibrinogen GPIIb/IIIa binding (FB) and inhibition of the ADP-induced platelet aggregation (PA) test procedures described above.

human blood platelets = assay: Inhibition of the ADP-induced aggregation of human blood platelets in the presence of fibrinogen (PA); type: cell-based; settings: washed human platelets, stimulated with ADP in the presence of fibrinogen, aggregometer
Procedure: b) Inhibition of the ADP-induced aggregation of human blood platelets in the presence of fibrinogen: Blood platelets are isolated from fresh whole-blood by centrifugation, and washed. The washed platelets are resuspended in the presence of PGI2 and apyrase and stimulated with ADP ([…]) in the presence of fibrinogen. The ability of the platelets to aggregate in the presence or absence of inhibitors is quantified using an aggregometer.
The inhibition of the ADP-induced platelet aggregation is brought about by compounds of formula I in a range of IC50 (concentration of compounds of formula I at which 50% of platelet aggregation is inhibited) of between 20 and 100 nM.
as §1

[1] = read-out: PA: IC50 (inhibition of the ADP-induced platelet aggregation)

Row | IC50 (GP IIb/IIIa) | IC50 (human blood platelets; Platelet) | IC50 (human blood platelets; [1]) | SMILES
1 | 7.6 nM | 640 nM | – | Cc1ccc(S(=O)(=O)N[C@@H](CCCNC(=O)Cc2ccc(C(=N)N)cc2)CC(=O)O)cc1 [Example 1, (S)-3-(N-tosylamino)-6-[N-(p-amidinophenylacetyl)amino]hexanoic acid]
2 | 1.7 nM | 100 nM | – | CC(C)CC(=O)N[C@@H](CCCNC(=O)Cc1ccc(C(=N)N)cc1)CC(=O)O [Example 2, (S)-3-[N-(3-methylbutyryl)amino]-6-[N-(p-amidinophenylacetyl)amino]hexanoicacid]
3 | 1.1 nM | – | 31 nM | COc1ccc(CCC(=O)N[C@@H](CCCNC(=O)Cc2ccc(C(=N)N)cc2)CC(=O)O)cc1 [Example 3, (S)-3-N-[3-(p-methoxyphenyl)propionyl]amino-6-[N-(p-amidinophenylacetyl)amino]hexanoic acid]
4 | 2.2 nM | 67 nM | – | N=C(N)c1ccc(CC(=O)NCCC[C@@H](CC(=O)O)NC(=O)CC23CC4CC(CC(C4)C2)C3)cc1 [Example 4, (S)-3-[N-(adamant-1-ylacetyl)amino]-6-[N-(p-amidinophenylacetyl)amino]hexanoic acid]
5 | 0.4 nM | 61 nM | – | N=C(N)c1ccc(CC(=O)NCCC[C@@H](CC(=O)O)NC(=O)CCC23CC4CC(CC(C4)C2)C3)cc1 [Example 5, (S)-3-[N-(3-adamant-1-ylpropionyl)amino]-6-[N-(p-amidinophenylacetyl)amino]hexanoic acid]
6 | 0.5 nM | 15 nM | – | CC(C)CC(=O)N[C@@H](CCCCNC(=O)c1ccc(C(=N)N)cc1)CC(=O)O [Example 6, (S)-3-(N-(3-methylbutyryl)amino]-7-[N-(p-amidinobenzoyl)amino]heptanoic acid]
7 | 0.5 nM | – | 80 nM | COc1ccc(CCC(=O)N[C@@H]2CC(=O)O[C@H](CNC(=O)Cc3ccc(C(=N)N)cc3)C2)cc1 [Example 7, (3S,5S)-6-(4-amidinophenylacetylamino)-5-hydroxy-3-(4-methoxyphenylpropionylamino)-hexanoic acid-δ-lactone]
8 | 0.9 nM | – | 110 nM | CC(C)CC(=O)N[C@@H]1CC(=O)O[C@H](CNC(=O)Cc2ccc(C(=N)N)cc2)C1 [Example 8, (3S,5S)-6-(4-amidino-phenylacetylamino)-5-hydroxy-3-(3-methyl-butyrylamino)-hexanoic acid-δ-lactone]
